Assay results reported in PubChem BioAssay (NCI).
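1) Cells in 96-well plates. 2) Compound, 48 h, 5 concentrations. 3) Linear interpolation between surrounding doses. 4) Unreached endpoint = highest concentration. Definition used: TGI = concentration required for complete inhibition of growth.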

Tests used:
Assay in all cases: inhibition of tumour cell growth, NCI panel, 48 h
[1] = system: 786-0 renal
[2] = system: A498 renal
[3] = system: A549 NSCLC
[4] = system: ACHN renal
[5] = system: BT-549 breast
[6] = system: CAKI-1 renal
[7] = system: CCRF-CEM leukemia
[8] = system: COLO 205 colon
[9] = system: DU-145 prostate
[10] = system: HCT-116 colon
[11] = system: HCT-15 colon
[12] = system: HOP-62 NSCLC
[13] = system: HOP-92 NSCLC
[14] = system: HS 578T breast
[15] = system: HT29 colon
[16] = system: IGROV1 ovarian
[17] = system: K-562 leukemia
[18] = system: KM12 colon
[19] = system: LOX IMVI melanoma
[20] = system: M14 melanoma
[21] = system: MALME-3M melanoma
[22] = system: MCF7 breast
[23] = system: MDA-MB-231 breast
[24] = system: MDA-MB-435
[25] = system: MDA-N
[26] = system: MOLT-4 leukemia
[27] = system: NCI-H226 lung
[28] = system: NCI-H23 lung
[29] = system: NCI-H460 lung
[30] = system: NCI-H522 lung
[31] = system: NCI/ADR-RES ovarian
[32] = system: OVCAR-3 ovarian
[33] = system: OVCAR-4 ovarian
[34] = system: OVCAR-8 ovarian
[35] = system: PC-3 prostate
[36] = system: RPMI-8226 leukemia
[37] = system: RXF 393 renal
[38] = system: SF-268 CNS
[39] = system: SF-539 CNS
[40] = system: SK-MEL-2 melanoma
[41] = system: SK-MEL-28 melanoma
[42] = system: SK-MEL-5 melanoma
[43] = system: SK-OV-3 ovarian
[44] = system: SN12C renal
[45] = system: SNB-19 CNS
[46] = system: SR leukemia
[47] = system: SW-620 colon
[48] = system: T-47D breast
[49] = system: TK-10 renal
[50] = system: U251 CNS
[51] = system: UACC-257 melanoma
[52] = system: UACC-62 melanoma
[53] = system: UO-31 renal
[54] = system: HCC-2998 colon
[55] = system: HL-60(TB) leukemia
[56] = system: OVCAR-5 ovarian
[57] = system: SNB-75 CNS

**Q.** How did the TGI [1] turn out when `CC(C)(C)/C(=N\Nc1nc2ccccc2[nH]1)c1ccccn1` was run?
**A.** The TGI was greater than 100 µM.

**Q.** And the TGI [2]?
**A.** Its TGI is greater than 100 µM.

**Q.** What about the TGI [3] of the same compound?
**A.** The TGI was greater than 100 µM.

**Q.** And the TGI [4]?
**A.** Its TGI is greater than 100 µM.

**Q.** And the TGI [5]?
**A.** Its TGI is greater than 100 µM.

**Q.** And the TGI [6]?
**A.** The TGI was greater than 100 µM.

**Q.** And the TGI [7]?
**A.** Its TGI is greater than 100 µM.

**Q.** And the TGI [8]?
**A.** The TGI was greater than 100 µM.

**Q.** What about the TGI [9] of the same compound?
**A.** The TGI was greater than 100 µM.

**Q.** What about the TGI [10] of the same compound?
**A.** Its TGI is 78 µM.

**Q.** And the TGI [11]?
**A.** Its TGI is greater than 100 µM.

**Q.** And the TGI [12]?
**A.** Its TGI is greater than 100 µM.

**Q.** What about the TGI [13] of the same compound?
**A.** Its TGI is greater than 100 µM.

**Q.** And the TGI [14]?
**A.** The TGI was greater than 100 µM.

**Q.** And the TGI [15]?
**A.** The TGI was greater than 100 µM.

**Q.** What about the TGI [16] of the same compound?
**A.** Its TGI is greater than 100 µM.

**Q.** What about the TGI [17] of the same compound?
**A.** The TGI was greater than 100 µM.

**Q.** And the TGI [18]?
**A.** The TGI was greater than 100 µM.

**Q.** And the TGI [19]?
**A.** Its TGI is greater than 100 µM.

**Q.** And the TGI [20]?
**A.** The TGI was greater than 100 µM.

**Q.** And the TGI [21]?
**A.** Its TGI is 61.5 µM.

**Q.** What about the TGI [22] of the same compound?
**A.** The TGI was 67.2 µM.

**Q.** What about the TGI [23] of the same compound?
**A.** Its TGI is greater than 100 µM.

**Q.** What about the TGI [24] of the same compound?
**A.** Its TGI is greater than 100 µM.

**Q.** And the TGI [25]?
**A.** Its TGI is greater than 100 µM.

**Q.** And the TGI [26]?
**A.** The TGI was greater than 100 µM.

**Q.** And the TGI [27]?
**A.** The TGI was greater than 100 µM.

**Q.** What about the TGI [28] of the same compound?
**A.** Its TGI is greater than 100 µM.

**Q.** What about the TGI [29] of the same compound?
**A.** Its TGI is greater than 100 µM.

**Q.** What about the TGI [30] of the same compound?
**A.** The TGI was greater than 100 µM.

**Q.** What about the TGI [31] of the same compound?
**A.** The TGI was greater than 100 µM.

**Q.** And the TGI [32]?
**A.** The TGI was 73.3 µM.

**Q.** What about the TGI [33] of the same compound?
**A.** The TGI was greater than 100 µM.

**Q.** What about the TGI [34] of the same compound?
**A.** Its TGI is greater than 100 µM.

**Q.** What about the TGI [35] of the same compound?
**A.** Its TGI is greater than 100 µM.

**Q.** And the TGI [36]?
**A.** Its TGI is 35.4 µM.

**Q.** What about the TGI [37] of the same compound?
**A.** Its TGI is greater than 100 µM.

**Q.** What about the TGI [38] of the same compound?
**A.** Its TGI is greater than 100 µM.

**Q.** And the TGI [39]?
**A.** Its TGI is greater than 100 µM.

**Q.** And the TGI [40]?
**A.** The TGI was greater than 100 µM.

**Q.** What about the TGI [41] of the same compound?
**A.** Its TGI is greater than 100 µM.

**Q.** What about the TGI [42] of the same compound?
**A.** Its TGI is greater than 100 µM.

**Q.** What about the TGI [43] of the same compound?
**A.** The TGI was greater than 100 µM.

**Q.** What about the TGI [44] of the same compound?
**A.** Its TGI is greater than 100 µM.

**Q.** What about the TGI [45] of the same compound?
**A.** Its TGI is greater than 100 µM.

**Q.** And the TGI [46]?
**A.** The TGI was greater than 100 µM.

**Q.** And the TGI [47]?
**A.** Its TGI is greater than 100 µM.

**Q.** And the TGI [48]?
**A.** The TGI was greater than 100 µM.

**Q.** What about the TGI [49] of the same compound?
**A.** The TGI was 67.8 µM.

**Q.** What about the TGI [50] of the same compound?
**A.** Its TGI is greater than 100 µM.

**Q.** And the TGI [51]?
**A.** The TGI was greater than 100 µM.

**Q.** What about the TGI [52] of the same compound?
**A.** Its TGI is greater than 100 µM.

**Q.** And the TGI [53]?
**A.** Its TGI is greater than 100 µM.

**Q.** With `COc1ccc(C(=O)c2sc(N(C)C)nc2-c2ccccc2)cc1` as the compound, how does the TGI [1] read?
**A.** Its TGI is greater than 100 µM.

**Q.** What about the TGI [2] of the same compound?
**A.** The TGI was 93.1 µM.

**Q.** And the TGI [3]?
**A.** The TGI was greater than 100 µM.

**Q.** What about the TGI [4] of the same compound?
**A.** The TGI was greater than 100 µM.

**Q.** What about the TGI [5] of the same compound?
**A.** Its TGI is 75.6 µM.

**Q.** What about the TGI [7] of the same compound?
**A.** The TGI was 65.2 µM.

**Q.** What about the TGI [8] of the same compound?
**A.** Its TGI is greater than 100 µM.

**Q.** What about the TGI [9] of the same compound?
**A.** Its TGI is greater than 100 µM.

**Q.** What about the TGI [54] of the same compound?
**A.** The TGI was 48.5 µM.

**Q.** What about the TGI [10] of the same compound?
**A.** Its TGI is greater than 100 µM.

**Q.** What about the TGI [11] of the same compound?
**A.** The TGI was greater than 100 µM.

**Q.** What about the TGI [55] of the same compound?
**A.** The TGI was 40.9 µM.

**Q.** And the TGI [12]?
**A.** Its TGI is greater than 100 µM.

**Q.** What about the TGI [13] of the same compound?
**A.** Its TGI is greater than 100 µM.

**Q.** What about the TGI [14] of the same compound?
**A.** The TGI was greater than 100 µM.

**Q.** And the TGI [15]?
**A.** Its TGI is greater than 100 µM.

**Q.** And the TGI [16]?
**A.** The TGI was greater than 100 µM.

**Q.** What about the TGI [17] of the same compound?
**A.** Its TGI is greater than 100 µM.

**Q.** And the TGI [18]?
**A.** The TGI was 73 µM.

**Q.** What about the TGI [19] of the same compound?
**A.** The TGI was greater than 100 µM.

**Q.** And the TGI [20]?
**A.** The TGI was greater than 100 µM.

**Q.** And the TGI [21]?
**A.** Its TGI is greater than 100 µM.

**Q.** And the TGI [22]?
**A.** The TGI was greater than 100 µM.

**Q.** And the TGI [23]?
**A.** Its TGI is greater than 100 µM.

**Q.** What about the TGI [24] of the same compound?
**A.** Its TGI is 52 µM.

**Q.** What about the TGI [25] of the same compound?
**A.** The TGI was 53.8 µM.

**Q.** And the TGI [26]?
**A.** Its TGI is greater than 100 µM.

**Q.** What about the TGI [27] of the same compound?
**A.** Its TGI is greater than 100 µM.

**Q.** And the TGI [28]?
**A.** The TGI was greater than 100 µM.

**Q.** And the TGI [29]?
**A.** The TGI was 52.9 µM.

**Q.** And the TGI [31]?
**A.** The TGI was 49.8 µM.

**Q.** What about the TGI [32] of the same compound?
**A.** The TGI was 48.6 µM.

**Q.** What about the TGI [33] of the same compound?
**A.** Its TGI is greater than 100 µM.

**Q.** What about the TGI [56] of the same compound?
**A.** The TGI was greater than 100 µM.

**Q.** And the TGI [35]?
**A.** Its TGI is greater than 100 µM.

**Q.** And the TGI [36]?
**A.** Its TGI is greater than 100 µM.

**Q.** And the TGI [37]?
**A.** The TGI was greater than 100 µM.

**Q.** What about the TGI [38] of the same compound?
**A.** The TGI was greater than 100 µM.

**Q.** And the TGI [39]?
**A.** Its TGI is greater than 100 µM.

**Q.** And the TGI [40]?
**A.** The TGI was 76.5 µM.

**Q.** And the TGI [41]?
**A.** Its TGI is greater than 100 µM.

**Q.** And the TGI [42]?
**A.** The TGI was greater than 100 µM.

**Q.** And the TGI [43]?
**A.** The TGI was 71.8 µM.

**Q.** And the TGI [44]?
**A.** Its TGI is greater than 100 µM.

**Q.** What about the TGI [45] of the same compound?
**A.** Its TGI is greater than 100 µM.

**Q.** What about the TGI [57] of the same compound?
**A.** The TGI was 80.1 µM.

**Q.** What about the TGI [46] of the same compound?
**A.** Its TGI is greater than 100 µM.

**Q.** What about the TGI [47] of the same compound?
**A.** Its TGI is greater than 100 µM.

**Q.** And the TGI [48]?
**A.** The TGI was greater than 100 µM.

**Q.** And the TGI [49]?
**A.** Its TGI is greater than 100 µM.

**Q.** And the TGI [50]?
**A.** Its TGI is greater than 100 µM.

**Q.** And the TGI [51]?
**A.** The TGI was 86.1 µM.

**Q.** And the TGI [52]?
**A.** The TGI was greater than 100 µM.

**Q.** What about the TGI [53] of the same compound?
**A.** Its TGI is greater than 100 µM.
